The record followed here is ChEMBL document CHEMBL2424561, “Discovery of new antitubercular agents by combining pyrazoline and benzoxazole pharmacophores: design, synthesis and insights into the binding interactions” (2013).

Converted amounts (≈) assume the structure as drawn.

The term MIC denotes the smallest concentration in the dilution series that meets the test's criterion for growth inhibition. A high value points to a need for much substance.

The assay has as its system Mycobacterium tuberculosis. The assay can be described thus: Antitubercular activity against Mycobacterium tuberculosis H37Rv after 6 weeks. It is filed as functional.
Regarding `COc1cc(C2CC(c3ccccc3)=NN2C(C)=O)cc(N)c1O` (stereo not given), the MIC amounted to 25 µg/mL (≈ 76.8 µM).

The compound `COc1cc(C2CC(c3ccccc3Br)=NN2C(C)=O)cc2nc(S)oc12` (stereo not given) gave an MIC of 12.5 µg/mL (≈ 28 µM).

In turn, `CC(=O)N1N=C(c2ccccc2)CC1c1ccc2oc(N)nc2c1` (stereo not given) came in with an MIC of 25 µg/mL (≈ 78 µM).

Take `CC(=O)N1N=C(c2ccccc2)CC1c1ccc(O)c(N)c1` (stereo not given): the MIC was determined as 1.25 µg/mL (≈ 4.23 µM).

`CC(=O)N1N=C(c2ccccc2Br)CC1c1ccc(O)c(N)c1` (stereo not given) showed an MIC of 0.625 µg/mL (≈ 1.67 µM).

In turn, `CC(=O)N1N=C(c2ccccc2)CC1c1cc(Cl)c2oc(N)nc2c1` (stereo not given) returned an MIC of 25 µg/mL (≈ 70.5 µM).

In turn, `CC(=O)N1N=C(c2ccccc2Br)CC1c1ccc2oc(S)nc2c1` (stereo not given) came in with an MIC of 12.5 µg/mL (≈ 30 µM).

As for `CC(=O)N1N=C(c2ccccc2Br)CC1c1cc(Cl)c2oc(S)nc2c1` (stereo not given), the MIC stood at 6.25 µg/mL (≈ 13.9 µM).

The compound `CC(=O)N1N=C(c2ccccc2)CC1c1cc(N)c(O)c(Cl)c1` (stereo not given) displayed an MIC of 3.25 µg/mL (≈ 9.85 µM).

With `COc1cc(C2CC(c3ccccc3)=NN2C(C)=O)cc2nc(N)oc12` (stereo not given), the MIC turned out to be 0.625 µg/mL (≈ 1.78 µM).

`CC(=O)N1N=C(c2ccccc2Br)CC1c1cc(Cl)c2oc(N)nc2c1` (stereo not given) displayed an MIC of 3.25 µg/mL (≈ 7.49 µM).

On to `COc1cc(C2CC(c3ccc(F)cc3)=NN2C(C)=O)cc(N)c1O` (stereo not given), for which 12.5 µg/mL (≈ 36.4 µM) was the least that counted as inhibitory (MIC).

Compound `CC(=O)N1N=C(c2ccccc2Br)CC1c1cc(N)c(O)c(Cl)c1` (stereo not given) yielded an MIC of 12.5 µg/mL (≈ 30.6 µM).

For `CC(=O)N1N=C(c2ccccc2)CC1c1ccc2oc(S)nc2c1` (stereo not given), it took 25 µg/mL (≈ 74.1 µM) to inhibit growth (MIC).

`COc1cc(C2CC(c3ccc(F)cc3)=NN2C(C)=O)cc2nc(N)oc12` (stereo not given): 6.25 µg/mL (≈ 17 µM) was the least that counted as inhibitory (MIC).

Take `CC(=O)N1N=C(c2ccccc2)CC1c1cc(Cl)c2oc(S)nc2c1` (stereo not given): the MIC came out at 1.25 µg/mL (≈ 3.36 µM).

With `CC(=O)N1N=C(c2ccccc2Br)CC1c1ccc2oc(N)nc2c1` (stereo not given), the MIC amounted to 25 µg/mL (≈ 62.6 µM).

In the case of `COc1cc(C2CC(c3ccccc3Br)=NN2C(C)=O)cc2nc(N)oc12` (stereo not given), 12.5 µg/mL (≈ 29.1 µM) was the least that counted as inhibitory (MIC).

As to `COc1cc(C2CC(c3ccccc3)=NN2C(C)=O)cc2nc(S)oc12` (stereo not given), the MIC is 6.25 µg/mL (≈ 17 µM).

Take `COc1cc(C2CC(c3ccc(Cl)cc3Cl)=NN2C(C)=O)cc2nc(S)oc12` (stereo not given): 6.25 µg/mL (≈ 14.3 µM) was the least that counted as inhibitory (MIC).

In the case of `NNC(=O)c1ccncc1` [ISONIAZID], it took 0.625 µg/mL (≈ 4.56 µM) to inhibit growth (MIC).

For `COc1cc(C2CC(c3ccccc3Br)=NN2C(C)=O)cc(N)c1O` (stereo not given), the MIC amounted to 12.5 µg/mL (≈ 30.9 µM).

`COc1cc(C2CC(c3ccc(Cl)cc3Cl)=NN2C(C)=O)cc(N)c1O` (stereo not given) returned an MIC of 12.5 µg/mL (≈ 31.7 µM).

For the compound `COc1cc(C2CC(c3ccc(Cl)cc3Cl)=NN2C(C)=O)cc2nc(N)oc12` (stereo not given), the MIC came to 12.5 µg/mL (≈ 29.8 µM).

As to `COc1cc(C2CC(c3ccc(F)cc3)=NN2C(C)=O)cc2nc(S)oc12` (stereo not given), the MIC amounted to 12.5 µg/mL (≈ 32.4 µM).
